From patent publication US9150531B2, “Tricyclic lactones for treatment of cancer” (Glactone Pharma Development AB, priority 2010, dated 2015)
pIC50: −log10 of the molar value.

Assays:
[1] = test system: STAT-3 transcription factor; assay: STAT3 inhibition, luciferase reporter (4xM67 pTATA TK-Luc) in HeLa cells stimulated with γ-Interferon; type: cell-based; settings: Homo sapiens, γ-Interferon 8 h, luciferase activity, read-out: Anti STAT3 IC50
Description: HeLa cells (4×10^4/ml) were transiently transfected with a luciferase reporter plasmid (4×M67 pTATA TK-Luc) driven by artificial promoter containing 4 repeated M67 binding sites in tandem for the STAT-3 transcription factor. The transfections were performed for 24 h using Roti-Fect reagent (Carl Roth, Karlsruhe, Germany) according to the manufacturer's recommendations. After incubation with different concentrations of the extracts for 30 min the transfected cells were stimulated for 8 h with γ-Interferon. Then, the cells were lysed in 25 mM Tris-phosphate pH 7.8, 8 mM MgCl2, 1 mM DTT, 1% Triton X-100, and 7% glycerol. Luciferase activity was measured as described for 5.1 cells.
γ-Interferon induces an average of 5-6 fold induction of the luciferase activity compared to non stimulated cells and this represent the index of transactivation that is represented in our experiment as the maximum levels of γ-Interferon-induced STAT-3 activation (100%). Results below represent the IC50 for each compound in this assay. The IC50 means the concentration of each compound that reduces luciferase activity by 50% and it was calculated by GraphPad software.

LNCaP-IL6 cells = assay: WST-1 proliferation assay, LNCaP-IL6 cells; type: cell-based, human
Description: (§1) The human prostate cancer cell lines DU145, LNCaP (from the American Type culture Collection, ATCC) and long-term interleukin-6 (IL-6) stimulated LNCaP cells (LNCaP-IL6 cells) (Hobisch, Ramoner et al. 2001) were used. The cells were cultured in RPMI 1640 medium supplemented with 10% FBS and 1% penicillin-streptomycin. All cells were incubated at 37° C. in a humidified atmosphere of […] and 5% CO2.
(§2) WST-1 proliferation assay was performed to study the effects of the test items on the proliferation and viability of cultured prostate cancer cells. LNCaP and DU145 cells were cultured in 96-well plates at the density of 2 000 cells/well in 200 μl of medium. Cells were allowed to set for 24 h. The cells were treated with 0, 2.5, 5 or 10 μM of the specific substance for 24 h and 48 h. Samples were made in triplicate. 20 μl WST-1 solution (Roche Applied Science, Mannheim, Germany) was added per well and incubated at 37° C. for 4 h. The absorbance of each well was measured using a scanning multiwell spectrophotometer, ELISA reader at a wavelength of 450 nm and reference wavelength of 690 nm. The results are presented as percent of untreated control cells or the absorbance value.

DU145 [2] = assay: WST-1 proliferation assay, DU145 cells (Example 16); type: cell-based, human
Description: as §1, §2

DU145 [3] = assay: WST-1 proliferation assay, DU145 cells (Example 17); type: cell-based, human
Description: The human prostate cancer cell line DU145 was used. The cells were cultured in RPMI 1640 medium supplemented with 10% FBS and 1% penicillin-streptomycin. All cells were incubated at 37° C. in a humidified atmosphere of […] and 5% CO2.
WST-1 proliferation assay was performed to study the effects of the test items on the proliferation and viability of cultured prostate cancer cells. DU145 cells were cultured in 96-well plates at the density of 2 000 cells/well in 200 μl of medium. Cells were allowed to set for 24 h and 48 h. The cells were treated with 0.5, 1.0, 2.5, 5.0, 10, and 50 μM of the specific substance for 24 h and 48 h. Samples were made in triplicate. 20 μl WST-1 solution (Roche Applied Science, Mannheim, Germany) was added per well and incubated at 37° C. for 4 h. The absorbance of each well was measured using a scanning multiwell spectrophotometer, ELISA reader at a wavelength of 450 nm and reference wavelength of 690 nm. The results are presented as percent of untreated control cells or the absorbance value.

DU145 [4] = assay: as above; type: cell-based, human; settings: 25.0 μM

| Compound | pIC50 [1] | % Proliferation (vs control) 24 h LNCaP-IL6 (LNCaP-IL6 cells; 2.5 uM) | % Proliferation (vs control) 48 h LNCaP-IL6 (LNCaP-IL6 cells; 2.5 uM) | % Proliferation (vs control) 24 h LNCaP-IL6 (LNCaP-IL6 cells; 5 uM) | % Proliferation (vs control) 48 h LNCaP-IL6 (LNCaP-IL6 cells; 5 uM) | % Proliferation (vs control) 24 h LNCaP-IL6 (LNCaP-IL6 cells; 10 uM) | % Proliferation (vs control) 48 h LNCaP-IL6 (LNCaP-IL6 cells; 10 uM) | % Proliferation (vs control) 24 h DU145 (DU145 [2]; 2.5 uM) | % Proliferation (vs control) 48 h Du145 (DU145 [2]; 2.5 uM) | % Proliferation (vs control) 24 h DU145 (DU145 [2]; 5 uM) | % Proliferation (vs control) 48 h Du145 (DU145 [2]; 5 uM) | % Proliferation (vs control) 24 h DU145 (DU145 [2]; 10 uM) | % Proliferation (vs control) 48 h Du145 (DU145 [2]; 10 uM) | Proliferation (vs control) Du145 (%) 24 h (DU145 [3]; 0.5 μM) | Proliferation (vs control) Du145 (%) 48 h (DU145 [3]; 0.5 μM) | Proliferation (vs control) Du145 (%) 24 h (DU145 [3]; 1.0 μM) | Proliferation (vs control) Du145 (%) 48 h (DU145 [3]; 1.0 μM) | Proliferation (vs control) Du145 (%) 24 h (DU145 [3]; 2.5 μM) | Proliferation (vs control) Du145 (%) 48 h (DU145 [3]; 2.5 μM) | Proliferation (vs control) Du145 (%) 24 h (DU145 [3]; 5.0 μM) | other results |
| --- | --- | --- | --- | --- | --- | --- | --- | --- | --- | --- | --- | --- | --- | --- | --- | --- | --- | --- | --- | --- | --- |
| COC(=O)C1=C[C@H](C)C[C@H]2CC(C)(C)[C@@H]3O[C@]123 (stereo in doubt) [Example 11, methyl 2,2,5-trimethyl-1a,2,3,3a,4,5-hexahydroindeno[1,7a-b]oxirene-7-carboxylate] | 5.60 | 93.47% | 78.36% | 89.35% | 71.85% | 79.82% | 31.62% | 93.88% | 85.06% | 80.42% | 67.77% | 72.14% | 45.51% | – | – | – | – | – | – | – | – |
| COC(=O)C1=C[C@H](C)C[C@H]2C[C@@H](Cc3ccccc3)[C@@H]3O[C@]123 (stereo in doubt) [Example 9, methyl 2-benzyl-5-methyl-1a,2,3,3a,4,5-hexahydroindeno[1,7a-b]oxirene-7-carboxylate] | 5.70 | 92.78% | 104.12% | 90.02% | 108.49% | 96.73% | 96.48% | 96.36% | 93.96% | 88.29% | 85.24% | 75.01% | 55.43% | – | – | – | – | – | – | – | – |
| COC(=O)C1=C[C@H](C)C[C@H]2C[C@H](c3ccccc3)[C@@H]3O[C@]123 (stereo in doubt) [Example 7, methyl 5-methyl-2-phenyl-1a,2,3,3a,4,5-hexahydroindeno[1,7a-b]oxirene-7-carboxylate] | 5.74 | 81.79% | 82.60% | 81.21% | 85.26% | 70.45% | 71.27% | 90.64% | 95.09% | 68.55% | 75.05% | 63.86% | 76.58% | – | – | – | – | – | – | – | – |
| C[C@H]1C=C2C(=O)O[C@@H]3C[C@@H](c4ccccc4)[C@H](C1)[C@]23O (stereo in doubt) [Example 4, 5,5a,6,7,7a,7b-hexahydro-7b-hydroxy-4-methyl-6-phenyl-indeno[1,7-bc]furan-2(4H)-one] | – | – | – | – | – | – | – | – | – | – | – | – | – | 125.24% | 161.90% | 76.74% | 106.97% | 86.48% | 106.23% | 91.39% | Proliferation (vs control) Du145 (%) 48 h (DU145 [3]; 5.0 μM): 73.13%; Proliferation (vs control) Du145 (%) 24 h (DU145 [3]; 10.0 μM): 45.29%; Proliferation (vs control) Du145 (%) 48 h (DU145 [3]; 10.0 μM): 59.35%; Proliferation (vs control) Du145 (%) 24 h (DU145 [3]; 50.0 μM): 18.31%; Proliferation (vs control) Du145 (%) 48 h (DU145 [3]; 50.0 μM): 11.34%; Proliferation (vs control) Du145 (%) 24 h (DU145 [4]): 22.17%; Proliferation (vs control) Du145 (%) 48 h (DU145 [4]): 21.83% |
| COC(=O)C1=C[C@H](C)C[C@H]2C[C@@H](c3ccccc3)[C@@H]3O[C@]123 (stereo in doubt) [Example 8, methyl 5-methyl-2-phenyl-1a,2,3,3a,4,5-hexahydroindeno[1,7a-b]oxirene-7-carboxylate] | 6.12 | 69.23% | 48.79% | 58.97% | 20.28% | 52.67% | 18.81% | 80.94% | 63.59% | 58.19% | 27.29% | 48.49% | 19.98% | – | – | – | – | – | – | – | – |
| O=C1O[C@@H]2[C@H](Cc3ccccc3)C[C@@H]3CCC=C1[C@@]32O (stereo in doubt) [Example 6, 5,5a,6,7,7a,7b-hexahydro-7b-hydroxy-7-benzyl-indeno[1,7-bc]furan-2(4H)-one] | – | – | – | – | – | – | – | – | – | – | – | – | – | 110.14% | 121.11% | 98.76% | 120.77% | 104.13% | 101.61% | 81.25% | Proliferation (vs control) Du145 (%) 48 h (DU145 [3]; 5.0 μM): 78.86%; Proliferation (vs control) Du145 (%) 24 h (DU145 [3]; 10.0 μM): 43.88%; Proliferation (vs control) Du145 (%) 48 h (DU145 [3]; 10.0 μM): 42.70%; Proliferation (vs control) Du145 (%) 24 h (DU145 [3]; 50.0 μM): 23.59%; Proliferation (vs control) Du145 (%) 48 h (DU145 [3]; 50.0 μM): 9.88%; Proliferation (vs control) Du145 (%) 24 h (DU145 [4]): 45.01%; Proliferation (vs control) Du145 (%) 48 h (DU145 [4]): 23.80% |
| COC(=O)C1=C[C@H](C)C[C@H]2C[C@H](Cc3ccccc3)[C@@H]3O[C@]123 (stereo in doubt) [Example 10, methyl 2-benzyl-5-methyl-1a,2,3,3a,4,5-hexahydroindeno[1,7a-b]oxirene-7-carboxylate] | 5.53 | 81.18% | 74.81% | 92.69% | 80.02% | 76.05% | 23.18% | 86.82% | 88.02% | 98.85% | 92.54% | 66.76% | 28.27% | – | – | – | – | – | – | – | – |
| C[C@H]1C=C2C(=O)O[C@@H]3CC[C@H](C1(C)C)[C@]23O (stereo in doubt) [Example 5, 5,5a,6,7,7a,7b-hexahydro-7b-hydroxy-4,5,5-trimethyl-indeno[1,7-bc]furan-2(4H)-one] | – | – | – | – | – | – | – | – | – | – | – | – | – | 105.62% | 98.92% | 101.40% | 93.59% | 72.14% | 53.09% | 54.75% | Proliferation (vs control) Du145 (%) 48 h (DU145 [3]; 5.0 μM): 35.53%; Proliferation (vs control) Du145 (%) 24 h (DU145 [3]; 10.0 μM): 39.62%; Proliferation (vs control) Du145 (%) 48 h (DU145 [3]; 10.0 μM): 29.96%; Proliferation (vs control) Du145 (%) 24 h (DU145 [3]; 50.0 μM): 14.36%; Proliferation (vs control) Du145 (%) 48 h (DU145 [3]; 50.0 μM): 8.51%; Proliferation (vs control) Du145 (%) 24 h (DU145 [4]): 28.13%; Proliferation (vs control) Du145 (%) 48 h (DU145 [4]): 13.26% |
